From ChEMBL document CHEMBL5634123, “Design and synthesis of 1H-benzo[d]imidazole selective HDAC6 inhibitors with potential therapy for multiple myeloma” (Eur J Med Chem, 2023)

How the values were obtained:
[1] = target: T1, Protein deacetylase HDAC6 (Homo sapiens, UniProt Q9UBN7); experiment: Inhibition of HDAC6 (unknown origin) preincubated for 10 mins followed by substrate addition measured for 1 hr by fluorescence based assay
T1 sequence (Q9UBN7 whole entry): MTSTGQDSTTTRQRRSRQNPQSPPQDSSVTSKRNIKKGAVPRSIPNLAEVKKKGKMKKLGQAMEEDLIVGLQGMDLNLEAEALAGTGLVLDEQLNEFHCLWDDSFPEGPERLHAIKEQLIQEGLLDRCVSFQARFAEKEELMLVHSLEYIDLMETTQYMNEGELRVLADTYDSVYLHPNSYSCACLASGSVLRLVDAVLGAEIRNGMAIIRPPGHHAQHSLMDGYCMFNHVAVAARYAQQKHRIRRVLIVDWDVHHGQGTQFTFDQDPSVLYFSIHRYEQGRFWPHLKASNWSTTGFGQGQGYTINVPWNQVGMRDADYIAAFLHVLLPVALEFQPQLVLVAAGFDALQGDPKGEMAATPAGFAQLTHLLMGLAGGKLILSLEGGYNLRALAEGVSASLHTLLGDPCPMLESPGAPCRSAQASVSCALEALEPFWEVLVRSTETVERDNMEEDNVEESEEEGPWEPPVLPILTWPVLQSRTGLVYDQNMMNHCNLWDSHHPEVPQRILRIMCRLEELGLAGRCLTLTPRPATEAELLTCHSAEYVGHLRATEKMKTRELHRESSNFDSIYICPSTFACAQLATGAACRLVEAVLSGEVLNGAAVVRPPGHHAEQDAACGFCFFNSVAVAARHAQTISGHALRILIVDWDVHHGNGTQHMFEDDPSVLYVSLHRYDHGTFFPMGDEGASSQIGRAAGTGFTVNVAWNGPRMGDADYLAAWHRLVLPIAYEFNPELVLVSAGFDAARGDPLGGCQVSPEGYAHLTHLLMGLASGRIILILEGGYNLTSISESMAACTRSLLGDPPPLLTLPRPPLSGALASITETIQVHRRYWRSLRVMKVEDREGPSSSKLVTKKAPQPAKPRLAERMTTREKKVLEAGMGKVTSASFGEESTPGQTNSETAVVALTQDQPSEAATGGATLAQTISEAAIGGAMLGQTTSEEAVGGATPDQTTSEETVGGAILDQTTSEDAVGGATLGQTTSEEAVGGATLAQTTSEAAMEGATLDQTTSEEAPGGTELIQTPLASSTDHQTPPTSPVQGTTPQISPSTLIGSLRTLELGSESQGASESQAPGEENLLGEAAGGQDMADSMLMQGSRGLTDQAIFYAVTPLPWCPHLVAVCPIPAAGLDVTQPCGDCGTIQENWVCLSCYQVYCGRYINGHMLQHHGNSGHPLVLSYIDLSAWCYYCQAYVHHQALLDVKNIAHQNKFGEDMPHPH

HCCLM3 = experiment: Cytotoxicity against human HCCLM3 cells assessed as inhibition of cell viability incubated for 24 hrs by CCK8 assay; assay type: functional, cell-based; conditions: HCCLM3, 24 h
HCT-116 = experiment: Cytotoxicity against human HCT-116 cells assessed as inhibition of cell viability incubated for 24 hrs by CCK8 assay; assay type: functional, cell-based; conditions: HCT-116, 24 h
SGC-7901 = experiment: Cytotoxicity against human SGC-7901 cells assessed as inhibition of cell viability incubated for 24 hrs by CCK8 assay; assay type: functional, cell-based; conditions: SGC-7901, 24 h
MDA-MB-468 = experiment: cells; conditions: Homo sapiens, MDA-MB-468, 24 h
RPMI-8226 [2] = experiment: cells; conditions: Homo sapiens, RPMI-8226, 24 h
[3] = target: T2, Protein deacetylase HDAC6 (Homo sapiens) (UniProt Q9UBN7); experiment: Inhibition of HDAC6 (unknown origin) at 1 uM preincubated for 10 mins followed by substrate addition measured for 1 hr by fluorescence based assay relative to control; conditions: time 70.0 min
T2 sequence (whole entry): T1 sequence (Q9UBN7 whole entry)

[4] = Clearance in mouse at 1 mg/kg, iv; assay type: ADME, organism-based; conditions: in vivo
RPMI-8226 [5] = experiment: Antitumor activity against human RPMI-8226 cells xenografted in Balb/c nude mouse assessed as ratio of tumor to control at 40 mg/kg, po qd for 21 days administered consecutively relative to control; assay type: functional; conditions: time 21 day
[6] = Toxicity in Balb/c nude mouse xenografted with human RPMI-8226 cells assessed as body weight loss at 40 mg/kg, po qd for 21 days administered consecutively; assay type: organism-based; conditions: in vivo, 504 h, time 21 day
[7] = Tmax in mouse at 10 mg/kg, po; assay type: ADME, organism-based; conditions: in vivo
[8] = Half life in mouse at 1 mg/kg, iv; assay type: ADME, organism-based; conditions: in vivo
[9] = Cmax in mouse at 10 mg/kg, po; assay type: ADME, organism-based; conditions: in vivo
RPMI-8226 [10] = experiment: Induction of cell cycle arrest at S phase in human RPMI-8226 cells at 2.5 uM incubated for 24 hrs by PI staining based flow cytometry (reference value: 58.5 %); assay type: functional
[11] = Oral bioavailability in mouse at 10 mg/kg; assay type: ADME, organism-based; conditions: in vivo
RPMI-8226 [12] = experiment: Induction of cell cycle arrest at G1 phase in human RPMI-8226 cells at 2.5 uM incubated for 24 hrs by PI staining based flow cytometry (reference value: 19.2 %); assay type: functional
RPMI-8226 [13] = experiment: Induction of apoptosis in human RPMI-8226 cells assessed as necrotic cells at 2.5 uM incubated for 24 hrs by Annexin V-FITC/PI staining based flow cytometry (reference value: 0.90 %); assay type: functional
RPMI-8226 [14] = experiment: Induction of apoptosis in human RPMI-8226 cells assessed as viable cells at 2.5 uM incubated for 24 hrs by Annexin V-FITC/PI staining based flow cytometry (reference value: 90.98 %); assay type: functional; conditions: read-out: Activity
RPMI-8226 [15] = experiment: Induction of apoptosis in human RPMI-8226 cells assessed as late apoptotic cells at 2.5 uM incubated for 24 hrs by Annexin V-FITC/PI staining based flow cytometry (reference value: 2.78 %); assay type: functional
[16] = Volume of distribution at steady state in mouse at 1 mg/kg, iv; assay type: ADME, organism-based; conditions: in vivo, read-out: Vdss
RPMI-8226 [17] = experiment: Induction of apoptosis in human RPMI-8226 cells assessed as early apoptotic cells at 2.5 uM incubated for 24 hrs by Annexin V-FITC/PI staining based flow cytometry (reference value: 5.34 %); assay type: functional
RPMI-8226 [18] = experiment: Induction of cell cycle arrest at G2 phase in human RPMI-8226 cells at 2.5 uM incubated for 24 hrs by PI staining based flow cytometry (reference value: 18.3 %); assay type: functional
[19] = AUC (0 to t) in mouse at 1 mg/kg, iv; assay type: ADME, organism-based; conditions: in vivo
Histone deacetylase 1 = Histone deacetylase 1 (Homo sapiens, UniProt Q13547); experiment: Inhibition of HDAC1 (unknown origin) preincubated for 10 mins followed by substrate addition measured for 1 hr by fluorescence based assay
Sequence of Histone deacetylase 1 (Q13547 whole entry): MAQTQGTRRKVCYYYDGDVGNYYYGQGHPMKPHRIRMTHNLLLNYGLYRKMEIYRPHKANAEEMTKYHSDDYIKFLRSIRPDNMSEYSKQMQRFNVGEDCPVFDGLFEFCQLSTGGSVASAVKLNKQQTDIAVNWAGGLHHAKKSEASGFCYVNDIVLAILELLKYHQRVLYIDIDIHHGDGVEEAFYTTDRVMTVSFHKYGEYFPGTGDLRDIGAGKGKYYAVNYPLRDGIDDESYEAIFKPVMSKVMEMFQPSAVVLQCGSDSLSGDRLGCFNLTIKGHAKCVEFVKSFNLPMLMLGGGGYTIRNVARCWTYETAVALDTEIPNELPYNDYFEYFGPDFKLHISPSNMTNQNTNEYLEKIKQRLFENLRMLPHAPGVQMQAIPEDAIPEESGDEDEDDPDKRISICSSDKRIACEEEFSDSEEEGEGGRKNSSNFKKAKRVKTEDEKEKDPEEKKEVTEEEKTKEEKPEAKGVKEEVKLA

| Structure (SMILES) | IC50 [1] [nM] | IC50 (MDA-MB-468) [nM] | IC50 (RPMI-8226 [2]) [nM] | IC50 (HCCLM3) [nM] | IC50 (HCT-116) [nM] | IC50 (SGC-7901) [nM] | further results |
| --- | --- | --- | --- | --- | --- | --- | --- |
| O=C(NO)c1ccc2c(c1)ncn2CCc1ccccc1 |  |  |  |  |  |  | inhibition [3]: 70.3% |
| Cn1c(CN2CCC3(CC2)OCCO3)nc2cc(C(=O)NO)ccc21 | 36.4 |  |  |  |  |  |  |
| Cn1c([C@H](Cc2ccccc2)NCc2ccccc2)nc2cc(C(=O)NO)ccc21 | 7.58 | 44000 | 2040 | > 50000 | 5520 | 40800 |  |
| O=C(CCCCCCNC(=O)c1cnc(N(c2ccccc2)c2ccccc2)nc1)NO [RICOLINOSTAT] |  |  |  |  |  |  | clearance [4]: 29.4 mL/min/kg; T/C (RPMI-8226 [5]): 39.9%; Activity [6]: Non-Toxic; Tmax [7]: 15 min; half-life [8]: 22.3 min; Cmax [9]: 333 ng/mL; Activity (RPMI-8226 [10]): 40.8%; bioavailability [11]: 6%; Activity (RPMI-8226 [12]): 28.1%; Activity (RPMI-8226 [13]): 0.56%; viability at 2.5 µM (RPMI-8226 [14]): 75.3%; Activity (RPMI-8226 [15]): 4.33%; Vd [16]: 0.525 L/kg; Activity (RPMI-8226 [17]): 19.84%; Activity (RPMI-8226 [18]): 24.5%; AUC(0-t) [19]: 566 ng·h/mL |
| Cn1c(CN2CCCCC2)nc2cc(C(=O)NO)ccc21 | 34.2 |  |  |  |  |  |  |
| O=C(NO)c1ccc2nc[nH]c2c1 | 4350 |  |  |  |  |  | IC50 (Histone deacetylase 1): > 10000 nM |
| O=C(NO)c1ccc2ncn(CCc3ccccc3)c2c1 |  |  |  |  |  |  | inhibition [3]: 23.4% |
| Cn1c(CNc2cccc(F)c2)nc2cc(C(=O)NO)ccc21 | 6.78 | 3760 | 1870 | 5180 | 1430 | 13600 |  |
| C[C@@H](NCc1ccccc1)c1nc2cc(C(=O)NO)ccc2n1C | 5.83 | 6010 | 709 | 1450 | 508 | 1650 | IC50 (Histone deacetylase 1): 841 nM |
| Cn1c(COc2ccccc2)nc2cc(C(=O)NO)ccc21 | 12.6 | 7960 | 2520 | 8720 | 2260 | 9810 |  |
| CCN(Cc1nc2cc(C(=O)NO)ccc2n1C)c1ccccc1 | 10.3 | > 50000 | 1380 | 4510 | 500 | 4200 |  |
| Cn1c(CSc2ccccc2)nc2cc(C(=O)NO)ccc21 | 28.1 |  |  |  |  |  |  |
| Cn1c(CNc2ccc(F)cc2)nc2cc(C(=O)NO)ccc21 | 18.4 |  |  |  |  |  |  |
| CCCCN(Cc1nc2cc(C(=O)NO)ccc2n1C)c1ccccc1 | 9.55 | 8170 | 934 | 3490 | 3120 | 2830 | IC50 (Histone deacetylase 1): 634 nM |
| CCCCN(Cc1nc2cc(C(=O)NO)ccc2n1C)c1cccc(F)c1 | 12.8 | 10500 | 1330 | 4430 | 3580 | 6530 |  |
| O=C(NO)c1ccc2nc(CCc3ccccc3)[nH]c2c1 | 69.2 |  |  |  |  |  |  |
| Cn1c(CNCc2ccccc2)nc2cc(C(=O)NO)ccc21 | 14.4 | 10800 | 349 | 2620 | 1330 | 5100 | IC50 (Histone deacetylase 1): 976 nM |
| Cn1c(CNc2ccccc2)nc2ccc(C(=O)NO)cc21 |  |  |  |  |  |  | inhibition [3]: 64.1% |
| Cc1ccccc1NCc1nc2cc(C(=O)NO)ccc2n1C | 15.8 | 5530 | 2190 | 15000 | 6300 | 10800 |  |

The remaining molecules from weak to strong by IC50 [1], led by results:

| IC50 [1] [nM] | IC50 (MDA-MB-468) [nM] | IC50 (RPMI-8226 [2]) [nM] | Structure (SMILES) | IC50 (HCCLM3) [nM] | IC50 (HCT-116) [nM] | IC50 (SGC-7901) [nM] | further results |
| --- | --- | --- | --- | --- | --- | --- | --- |
| 1510 |  |  | CC(C)n1c(CNc2ccccc2)nc2cc(C(=O)NO)ccc21 |  |  |  |  |
| 898 |  |  | O=C(NO)c1ccc2c(c1)nc(CNc1ccccc1)n2C1CC1 |  |  |  |  |
| 853 |  |  | CCn1c(CNc2ccccc2)nc2cc(C(=O)NO)ccc21 |  |  |  |  |
| 19.4 |  |  | Cc1ccc(NCc2nc3cc(C(=O)NO)ccc3n2C)cc1 |  |  |  |  |
| 15.8 | 9600 | 2060 | Cn1c(CNc2ccccc2)nc2cc(C(=O)NO)ccc21 | 41500 | 17200 | > 50000 |  |
| 13.8 | 8580 | 2470 | Cn1c(CNc2ccccc2F)nc2cc(C(=O)NO)ccc21 | 14400 | > 50000 | 5810 |  |
| 12.8 | > 50000 | 2390 | CCCN(Cc1nc2cc(C(=O)NO)ccc2n1C)c1ccccc1 | 4800 | 2060 | 8690 |  |
| 11.8 | > 50000 | 1620 | Cc1cccc(NCc2nc3cc(C(=O)NO)ccc3n2C)c1 | > 50000 | 16000 | 27900 |  |
| 9.22 | 9160 | 1050 | C[C@H](NCc1ccccc1)c1nc2cc(C(=O)NO)ccc2n1C | 2420 | 6420 | 2400 |  |
| 8.91 | 4930 | 661 | CN(Cc1nc2cc(C(=O)NO)ccc2n1C)c1ccccc1 | 6690 | 9950 | 3690 | IC50 (Histone deacetylase 1): 567 nM |
| 5.87 | 6730 | 320 | Cn1c(CNc2cccc3ccccc23)nc2cc(C(=O)NO)ccc21 | 781 | 9360 | 518 | IC50 (Histone deacetylase 1): 834 nM |
